{"source": "the NIST ThermoML archive (doi:10.1016/j.fluid.2008.06.019)", "key": {"[1]": {"conditions": "298.15 K; 101.33 kPa; Liquid"}, "[2]": {"test": "xn = mol fraction of the nth substance listed", "conditions": "298.15 K, 101 kPa, Liquid"}}, "note": "Numbers after ± are expanded uncertainties."}
{"compound": "CC(C)OC(C)C", "note": "[diisopropyl ether]", "values": [{"measurement": "mass density", "setting": "[1]", "result": "719.17 ± 0.33", "unit": "kg/m3"}]}
{"compound": "CC(C)OC(C)C", "note": "[diisopropyl ether] + CCCO", "values": [{"measurement": "mass density", "setting": "[2]; x1 = 0.0508", "result": "794.63 ± 0.29", "unit": "kg/m3"}, {"measurement": "mass density", "setting": "[2]; x1 = 0.0999", "result": "789.64 ± 0.3", "unit": "kg/m3"}, {"measurement": "mass density", "setting": "[2]; x1 = 0.2", "result": "779.84 ± 0.3", "unit": "kg/m3"}, {"measurement": "mass density", "setting": "[2]; x1 = 0.2998", "result": "770.67 ± 0.31", "unit": "kg/m3"}, {"measurement": "mass density", "setting": "[2]; x1 = 0.3993", "result": "762.07 ± 0.31", "unit": "kg/m3"}, {"measurement": "mass density", "setting": "[2]; x1 = 0.4999", "result": "754.19 ± 0.32", "unit": "kg/m3"}, {"measurement": "mass density", "setting": "[2]; x1 = 0.6006", "result": "746.71 ± 0.32", "unit": "kg/m3"}, {"measurement": "mass density", "setting": "[2]; x1 = 0.7007", "result": "739.41 ± 0.32", "unit": "kg/m3"}, {"measurement": "mass density", "setting": "[2]; x1 = 0.8001", "result": "732.66 ± 0.32", "unit": "kg/m3"}, {"measurement": "mass density", "setting": "[2]; x1 = 0.9015", "result": "725.59 ± 0.33", "unit": "kg/m3"}, {"measurement": "mass density", "setting": "[2]; x1 = 0.9514", "result": "722.22 ± 0.33", "unit": "kg/m3"}]}
{"compound": "CC(C)OC(C)C", "note": "[diisopropyl ether] + Cc1ccccc1", "values": [{"measurement": "mass density", "setting": "[2]; x1 = 0.05", "result": "853.94 ± 0.27", "unit": "kg/m3"}, {"measurement": "mass density", "setting": "[2]; x1 = 0.0995", "result": "845.89 ± 0.27", "unit": "kg/m3"}, {"measurement": "mass density", "setting": "[2]; x1 = 0.2004", "result": "829.97 ± 0.28", "unit": "kg/m3"}, {"measurement": "mass density", "setting": "[2]; x1 = 0.2999", "result": "814.46 ± 0.29", "unit": "kg/m3"}, {"measurement": "mass density", "setting": "[2]; x1 = 0.4001", "result": "799.53 ± 0.3", "unit": "kg/m3"}, {"measurement": "mass density", "setting": "[2]; x1 = 0.5003", "result": "784.92 ± 0.31", "unit": "kg/m3"}, {"measurement": "mass density", "setting": "[2]; x1 = 0.6001", "result": "770.99 ± 0.31", "unit": "kg/m3"}, {"measurement": "mass density", "setting": "[2]; x1 = 0.7004", "result": "757.31 ± 0.31", "unit": "kg/m3"}, {"measurement": "mass density", "setting": "[2]; x1 = 0.8003", "result": "744.27 ± 0.32", "unit": "kg/m3"}, {"measurement": "mass density", "setting": "[2]; x1 = 0.9003", "result": "731.28 ± 0.33", "unit": "kg/m3"}, {"measurement": "mass density", "setting": "[2]; x1 = 0.9498", "result": "725.19 ± 0.33", "unit": "kg/m3"}]}
{"compound": "CCCO", "note": "[propan-1-ol]", "values": [{"measurement": "mass density", "setting": "[1]", "result": "800.61 ± 0.29", "unit": "kg/m3"}]}
{"compound": "Cc1ccccc1", "note": "[toluene]", "values": [{"measurement": "mass density", "setting": "[1]", "result": "862.23 ± 0.27", "unit": "kg/m3"}]}
{"compound": "Cc1ccccc1", "note": "[toluene] + CCCO", "values": [{"measurement": "mass density", "setting": "[2]; x2 = 0.0491", "result": "859.7 ± 0.27", "unit": "kg/m3"}, {"measurement": "mass density", "setting": "[2]; x2 = 0.0987", "result": "857.27 ± 0.27", "unit": "kg/m3"}, {"measurement": "mass density", "setting": "[2]; x2 = 0.2003", "result": "852.39 ± 0.27", "unit": "kg/m3"}, {"measurement": "mass density", "setting": "[2]; x2 = 0.2995", "result": "847.48 ± 0.27", "unit": "kg/m3"}, {"measurement": "mass density", "setting": "[2]; x2 = 0.4006", "result": "842.21 ± 0.28", "unit": "kg/m3"}, {"measurement": "mass density", "setting": "[2]; x2 = 0.5001", "result": "836.7 ± 0.28", "unit": "kg/m3"}, {"measurement": "mass density", "setting": "[2]; x2 = 0.6001", "result": "830.71 ± 0.28", "unit": "kg/m3"}, {"measurement": "mass density", "setting": "[2]; x2 = 0.7005", "result": "824.13 ± 0.28", "unit": "kg/m3"}, {"measurement": "mass density", "setting": "[2]; x2 = 0.8001", "result": "817.01 ± 0.29", "unit": "kg/m3"}, {"measurement": "mass density", "setting": "[2]; x2 = 0.9006", "result": "809.12 ± 0.29", "unit": "kg/m3"}, {"measurement": "mass density", "setting": "[2]; x2 = 0.9497", "result": "805 ± 0.29", "unit": "kg/m3"}]}
